# Read-outs that look alike come from different tables or passages of the source. Where a SMILES comes first, the peptide text is derived from it. [ ]: non-standard residue; d: D form. Pip = O=C(O)[C@@H]1CCCCN1; AEEA = NCCOCCOCC(=O)O
# How the values were obtained:
# APCE = molecular target: T1, APCE (Homo sapiens, UniProt Q12884); assay: APCE enzyme assay with fluorescent AMC substrates, competitive inhibition constants; format: biochemical; conditions: for Selectivity, Ki (DPPIV)/Ki (APCE/FAP): ratio of Ki values
# T1 construct: APCE lacks the first 23 amino terminal residues of FAP; tissue Sylvan Goldman Blood Institute (source of the plasma); host or cells: human plasma
# T1 sequence (Q12884 24-760 limits assumed): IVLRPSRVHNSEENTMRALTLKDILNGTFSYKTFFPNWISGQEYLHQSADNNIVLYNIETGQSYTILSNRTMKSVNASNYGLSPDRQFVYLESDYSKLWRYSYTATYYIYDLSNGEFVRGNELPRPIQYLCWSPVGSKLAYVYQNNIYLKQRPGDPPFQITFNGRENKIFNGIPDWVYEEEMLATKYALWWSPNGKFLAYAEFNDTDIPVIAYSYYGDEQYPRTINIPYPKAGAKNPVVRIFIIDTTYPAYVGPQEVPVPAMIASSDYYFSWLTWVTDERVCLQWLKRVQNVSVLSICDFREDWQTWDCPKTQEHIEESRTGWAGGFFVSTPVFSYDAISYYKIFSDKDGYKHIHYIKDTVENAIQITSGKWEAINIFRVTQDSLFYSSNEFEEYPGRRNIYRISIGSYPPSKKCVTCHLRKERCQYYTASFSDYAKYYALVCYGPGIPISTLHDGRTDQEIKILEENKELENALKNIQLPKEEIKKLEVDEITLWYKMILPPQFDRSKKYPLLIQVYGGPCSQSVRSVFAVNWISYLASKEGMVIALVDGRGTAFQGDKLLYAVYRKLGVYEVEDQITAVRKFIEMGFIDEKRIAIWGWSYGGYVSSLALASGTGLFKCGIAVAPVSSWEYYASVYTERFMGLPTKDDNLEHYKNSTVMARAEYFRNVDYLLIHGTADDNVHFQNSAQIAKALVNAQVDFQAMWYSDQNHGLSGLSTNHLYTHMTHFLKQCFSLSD
# Description: (§1) Fluorescence was monitored with time at excitation and emission wavelengths of 360 and 460 nm using a black-sided, 96-well plate in a BIO-TEK FL600 fluorescence plate reader. For standard curves, dilutions of AMC (7-amino-4-methylcoumarin) were prepared in the same assay buffer and corresponding fluorescence was measured. The substrates in five different concentrations were mixed with four different concentrations of inhibitors around the expected Ki values; the enzyme was added and enzymatically released AMC fluorescence was recorded. […] Therefore, enzyme kinetic parameters were computed by fitting data to the following equation, employing the program PRISM, GraphPad: […]
# DPPIV = DPPIV (Homo sapiens, UniProt P27487); assay: DPPIV enzyme assay with fluorescent AMC substrates, inhibition constants; format: biochemical
# Sequence of DPPIV (P27487 whole entry, species assumed): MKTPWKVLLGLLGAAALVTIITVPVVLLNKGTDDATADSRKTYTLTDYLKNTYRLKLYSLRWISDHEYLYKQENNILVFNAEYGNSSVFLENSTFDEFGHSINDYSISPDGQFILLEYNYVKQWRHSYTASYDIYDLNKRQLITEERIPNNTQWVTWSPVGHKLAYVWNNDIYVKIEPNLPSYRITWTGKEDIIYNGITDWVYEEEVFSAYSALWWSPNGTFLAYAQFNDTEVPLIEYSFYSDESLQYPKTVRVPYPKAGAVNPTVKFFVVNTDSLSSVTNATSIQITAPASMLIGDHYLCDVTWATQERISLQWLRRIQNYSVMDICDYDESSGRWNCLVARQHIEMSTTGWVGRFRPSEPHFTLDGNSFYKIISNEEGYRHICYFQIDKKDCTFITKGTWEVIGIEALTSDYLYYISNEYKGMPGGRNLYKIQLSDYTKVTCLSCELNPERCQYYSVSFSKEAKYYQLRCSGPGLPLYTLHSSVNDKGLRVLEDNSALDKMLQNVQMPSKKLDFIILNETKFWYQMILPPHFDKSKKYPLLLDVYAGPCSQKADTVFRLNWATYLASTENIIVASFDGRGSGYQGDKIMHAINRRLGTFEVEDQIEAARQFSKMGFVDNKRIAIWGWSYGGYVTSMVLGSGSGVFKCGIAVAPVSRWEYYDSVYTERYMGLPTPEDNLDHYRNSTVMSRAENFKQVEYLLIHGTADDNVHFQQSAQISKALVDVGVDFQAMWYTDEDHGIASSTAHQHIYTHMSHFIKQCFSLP
# Description: as §1
# [1] = molecular target: T2, cell surface FAP of W138 fibroblast cells (Homo sapiens, UniProt Q12884); assay: Cell surface FAP activity of fibroblasts (cleavage of Ac-Arg-peg-Gly-Pro-AMC); format: cell-based
# T2 construct: FAP proteolytic activity expressed on the surface of living fibroblast cells; endogenous in cells; host or cells: W138 (WI-38) fibroblasts
# T2 sequence (Q12884 1-760): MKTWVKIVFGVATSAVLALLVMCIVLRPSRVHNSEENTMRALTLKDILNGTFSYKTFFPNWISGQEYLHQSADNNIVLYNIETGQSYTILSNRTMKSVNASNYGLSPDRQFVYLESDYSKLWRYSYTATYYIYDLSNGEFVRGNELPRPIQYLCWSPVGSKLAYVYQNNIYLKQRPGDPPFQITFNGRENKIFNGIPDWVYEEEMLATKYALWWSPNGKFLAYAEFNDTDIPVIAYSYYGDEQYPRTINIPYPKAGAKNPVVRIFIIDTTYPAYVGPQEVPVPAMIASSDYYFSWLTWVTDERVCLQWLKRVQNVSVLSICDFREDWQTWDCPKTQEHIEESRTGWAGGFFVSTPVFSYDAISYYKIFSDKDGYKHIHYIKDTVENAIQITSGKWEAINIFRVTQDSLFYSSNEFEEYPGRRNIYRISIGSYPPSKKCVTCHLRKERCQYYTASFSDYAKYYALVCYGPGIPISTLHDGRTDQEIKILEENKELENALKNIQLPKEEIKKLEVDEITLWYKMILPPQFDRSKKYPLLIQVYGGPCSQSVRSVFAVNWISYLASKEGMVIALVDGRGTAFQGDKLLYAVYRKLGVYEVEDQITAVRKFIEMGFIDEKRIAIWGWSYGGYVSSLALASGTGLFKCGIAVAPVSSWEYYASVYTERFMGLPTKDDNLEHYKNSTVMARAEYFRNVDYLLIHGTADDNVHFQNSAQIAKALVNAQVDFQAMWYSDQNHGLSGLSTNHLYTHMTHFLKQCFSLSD
# Description: FIG. 6 is a graph showing cell surface FAP activity of fibroblasts. W138 Cells were seeded into opaque black 96 well cell culture plates and grown to confluency. Cells were washed with Hanks Balanced Salt Solution after which either the inhibitor compound Ac-Arg-(8-amino-3,6-dioxaoctanoyl)-D-Ala-L-boroPro, or buffer, was added. The FAP substrate, Ac—R-peg-G-P-AMC, was added and fluorescence was measured with time. The inhibitor was added to one set of cells 2 hours after substrate addition (see arrow). O.D. 360/460 was converted to APCE Units using a standard curve.
# FIG. 6, for example, illustrates that FAP proteolytic activity expressed on the surface of living fibroblast cells can readily be inhibited by the inhibitor Ac-Arg-peg-D-Ala-boroPro (a.k.a. M83). We measured FAP activity by use of a synthetic substrate, Ac-Arg-peg-Gly-Pro-amidomethyl coumarin, which produces fluorescence upon cleavage of the bond between proline and the amidomethylcoumarin by FAP. In these experiments we made a treatment and then measured any fluorescence generated over several hours. The figure compares three treatments: • (1) “Control”: This curve represents addition of the substrate to live cells bathed in culture media with no other treatment. The synthetic substrate cleavage is observed as reflected by measurement of the fluorescence generated that is expressed as APCE Units.
# [2] = molecular target: T3, cell surface FAP of MDA-MB-435 breast cancer cells (Homo sapiens, UniProt Q12884); assay: Cell surface FAP activity of breast cancer cells (cleavage of Ac-Arg-peg-Gly-Pro-AMC); format: cell-based; conditions: live MDA-MB-435 breast cancer cells, inhibitor added with substrate
# T3 construct: cultured breast cancer cells also have FAP activity on their cell surface; endogenous in cells; host or cells: MDA-MB-435 cells
# T3 sequence (Q12884 1-760): T2 sequence (Q12884 1-760)
# Description: FIG. 7 is a graph showing cell surface FAP activity of breast cancer cells. MDA-MB-435 cells were seeded into opaque black 96 well cell culture plates and grown to confluency. Cells were washed with Hanks Balanced Salt solution after which either the inhibitor compound Ac-Arg-(8-amino-3,6-dioxaoctanoyl)-D-Ala-L-boroPro, or buffer, was added. The FAP substrate, Ac—R-peg-G-P-AMC, was added and fluorescence measured with time. O.D. 360/460 was converted to APCE Units using a standard curve.
# In FIG. 7, the experiment was performed in exactly the same way as for FIG. 6, except live breast cancer cells were used.
# [3] = best-fit value ± standard error, read-out: Ki, inhibition of APCE activity
Ki (APCE; [3]) [µM],"Selectivity, Ki (DPPIV)/Ki (APCE/FAP) (APCE)",Ki (APCE; read-out: APCE/FAP Ki) [µM],Ki (DPPIV) [µM],Compound,further results
703 ± 68,–,–,–,FG-peg-G-pyrrolidide [Inhibitor (6)],–
–,14.9,0.0229,0.341,CC(=O)NC(CCCNC(=N)N)C(=O)NCC(=O)NCC(=O)N1CCCC1B(O)O (racemic) [Ac-Arg-Gly-Gly-DL-boroPro],–
–,244,0.0018,0.44,CC(=O)N[C@@H](CCCNC(=N)N)C(=O)NCCOCCOCC(=O)NCC(=O)N1CCC[C@H]1B(O)O [Ac-Arg-peg-Gly-L-boroPro],–
–,18.7,0.0172,0.322,CC(=O)N[C@@H](CCCNC(=N)N)C(=O)NCC(=O)NCC(=O)N1CCC[C@H]1B(O)O [Ac-Arg-Gly-Gly-L-boroPro],–
–,–,0.0077,–,Ac-Arg-peg-D-Ala-DL(25:75%)-boroPro,–
–,–,0.0183,–,Ac-Arg-peg-D-Ala-DL(75:25%)-boroPro,–
–,1075,0.0057,6.13,"CC(=O)NC(CCCNC(=N)N)C(=O)NCCOCCOCC(=O)NC(C)C(=O)N1CCCC1B(O)O (single isomer, unassigned) [Ac-Arg-peg-D-Ala-L-boroPro, acetyl-arg-8-amino-3,6-dioxaoctanoic acid-D-ala-L-boroPro]","Cell surface FAP activity (substrate hydrolysis, fluorescence as APCE Units) ([1]; 10 uM inhibitor added to fibroblasts 2 hrs after substrate, listed as Ac-Arg-(8-amino-3,6-dioxaoctanoyl)-D-Ala-L-boroPro): inhibited cell surface FAP immediately; Cell surface FAP activity (substrate hydrolysis, fluorescence as APCE Units) ([1]; 10 uM inhibitor added to fibroblasts 2 hrs after substrate, listed as M83): immediately and completely arrested; Cell surface FAP activity (substrate hydrolysis, fluorescence as APCE Units) ([1]; 10 uM inhibitor added to live fibroblasts simultaneously with substrate, followed 5 hours): no substrate hydrolysis occurs; Cell surface FAP activity (substrate hydrolysis, fluorescence as APCE Units) [2]: completely inhibited"
–,1176,0.0095,11.2,CC(=O)NC(CCCNC(=N)N)C(=O)NCCOCCOCC(=O)NC(C)C(=O)N1CCCC1B(O)O [Ac-Arg-peg-D-Ala-DL(50:50%)-boroPro],–
–,319,–,–,CC(=O)N[C@@H](CCCNC(=N)N)C(=O)NCCOCCOCC(=O)N[C@@H](CO)C(=O)NCC(=O)N1CCC[C@H]1B(O)O [Ac-Arg-peg-Ser-Gly-L-boroPro],–
–,5.2,1.38,7.13,CC(=O)N[C@@H](CCCNC(=N)N)C(=O)NCCOCCOCC(=O)N[C@H](CC(=O)O)C(=O)N1CCC[C@H]1B(O)O [Ac-Arg-peg-D-Asp-L-boroPro],–
53.8 ± 4.9,–,–,–,FR-peg-G-[r]fluoropyrrolidide [Inhibitor (8)],–
–,108,–,–,"CC(=O)NC(CCCNC(=N)N)C(=O)NCCOCCOCC(=O)NC(C)C(=O)N1CCCC1B(O)O (single isomer, unassigned) [Ac-Arg-peg-D-Ala-D-boroPro]",–
55.3 ± 5.3,–,–,–,FR-peg-G-[s]fluoropyrrolidide [Inhibitor (9)],–
67.7 ± 5.8,–,–,–,FR-peg-G-pyrrolidide [Inhibitor (5)],–
–,371,0.0031,1.15,CC(=O)NC(CCCNC(=N)N)C(=O)NCCOCCOCC(=O)NCC(=O)N1CCCC1B(O)O (racemic) [Ac-Arg-peg-Gly-DL-boroPro],–

Compound,Ki (APCE; [3]) [µM],"Selectivity, Ki (DPPIV)/Ki (APCE/FAP) (APCE)",Ki (APCE; read-out: APCE/FAP Ki) [µM],Ki (DPPIV) [µM],further results
"N=C(N)NCCC[C@H](NC(=O)[C@@H](N)Cc1ccccc1)C(=O)NCCOCCOCC(=O)NCC(=O)N1CCCC[C@H]1C(N)=O [Inhibitor (11), FR-peg-G-pipecolinamide] (H-FR[AEEA]G[Pip]-NH2)",> 1000,–,–,–,–

# Reference: patent publication US10174077B2, “Method of inhibiting activity of cell surface fibroblast activation protein alpha” (The Board of Regents of the University of Oklahoma, priority 2006, dated 2019)
